According to patent US20200239398A1, “METHYLENE-CYCLOALKYLACETATE DERIVATIVES AND THEIR USE IN TREATMENT OF NEUROTROPIC CONDITIONS” (Yissum Research Development Company of The Hebrew …, priority 2018, published 2020):
Like-named read-outs stand apart in the source and are kept apart here.

Tests used:
[1] = tested on: PC12 cells; assay: Additive neurotropic effect between HU-MCA-13 and NGF, PC12 neurite outgrowth; assay type: cell-based, rat
Protocol: PC12 cells were cultured in T-200 flasks in high glucose (4.5 gr/L) DMEM medium supplemented with 7% FCS, 7% horse serum and 1% penicillin and streptomycin. Cells will be maintained at 37° C. in a humidified incubator containing 6% CO2. All experiments were carried out in a GLP clean room, according to ISO 7 requirements (10,000 particles/m^3). For neurotropic experiments, tissue culture Falcon plates were coated with 200 μg/ml collagen type 1 and placed under UV light for 30 minutes for sterilization. Thereafter, one ml of PC12 cell suspension (5000 cells/well) was applied in 12 or 24 well plate, respectively. The cultures were maintained in the incubator two days before exposure to investigated compound. Each neurotropic experiment contained two controls. The first consisted of untreated cells (negative control), representing the random effect: “noise signal”—the ability of cells to spontaneously grow neurite outgrowth which in seven days are of a length less than two-fold cell diameter. Also, negative controls consisted of cultures treated with 1% DMSO, solvent used to solubilize HU-MCA-13. The positive controls represented neuronal cultures treated with 50 ng/ml NGF, indicating maximal neurite outgrowth that can be achieved in this model. The experimental group consisted of PC12 cells treated with 10 μM HU-MCA-13. In each experiment, after two and seven days, six cultures will be evaluated for neurotropic effect. These consecutive observations allow measurement of the progress of neurite outgrowth elongation and the percentage of cells with neurites (Katzir et al. A quantitative bioassay for nerve growth factor, using PC12 clones expressing different levels of trkA receptors. J Mol Neurosci. 2002; 18(3):251-64). In order to assess neurotropic effect, the neurite outgrowth length in each culture was quantified. For this purpose, each culture was placed under an inverted microscope and photographed by the attached camera. Each well was photographed at three to five representative areas. After acquiring the photos, they were analyzed by ImageJ, NIH software. The neurite outgrowth was estimated by fractal dimension (Df), a statistical parameter that describes the fractional space (area and length) filled by neurite outgrowth. Df ranged from 0 to 1.20. This method estimated the amount of picsels covered by neurites/cells compared to empty space per square field, and therefore plotting log(number of square boxes) vs. log(size in pixels) relationship generated a linear curve with Df representing the slope of the curve. Every photograph that was taken, was opened in a Photoshop software and a new layer was generated on it. Using a 5-pixel wide digital pencil tool, all the outgrowths were marked and the layer with the markers (outgrowth network) were saved in a 0-255 gray scale. Thereafter, the saved layer was opened by ImageJ NIH software.
Using an established PC12 neurotropic in vitro assay, the regenerative enhancing effect of HU-MCA-13 when applied concomitantly, together with NGF, a known neurotrophin was investigated. […] NGF alone, as positive control, at the conventional dose of 50 ng/ml enhanced neurite outgrowth to a Df value of 0.54 at 2 days and 0.4 at 7 days of treatment (FIG. 5). To verify a possible additive effect, the cultures with a mixture of low dose NGF (1 ng/ml generating 10% neurite outgrowth=Df of 0.05) and 1 μM HU-MCA-13 generating about 10-15% neurite outgrowth=Df of 0.04) were tested and found after 2 days a Df of 0.85 and after 7 days a Df of 0.38. NGF is released by hematopoietic cells during polyneuropathy inflammatory process, this finding further strength the possibility of a potential enhancement regenerative effect of this drug upon in vivo therapy.

[2] = biological target: Adenosine Receptor A2A (ADORA2A) (Homo sapiens, UniProt P29274); assay: SAFETYscan ADORA2A Calcium Flux; assay type: cell-based; conditions: 10 μM HU-MCA-13, read-out: Maximal Response
Adenosine Receptor A2A (ADORA2A), sequence (P29274 whole entry): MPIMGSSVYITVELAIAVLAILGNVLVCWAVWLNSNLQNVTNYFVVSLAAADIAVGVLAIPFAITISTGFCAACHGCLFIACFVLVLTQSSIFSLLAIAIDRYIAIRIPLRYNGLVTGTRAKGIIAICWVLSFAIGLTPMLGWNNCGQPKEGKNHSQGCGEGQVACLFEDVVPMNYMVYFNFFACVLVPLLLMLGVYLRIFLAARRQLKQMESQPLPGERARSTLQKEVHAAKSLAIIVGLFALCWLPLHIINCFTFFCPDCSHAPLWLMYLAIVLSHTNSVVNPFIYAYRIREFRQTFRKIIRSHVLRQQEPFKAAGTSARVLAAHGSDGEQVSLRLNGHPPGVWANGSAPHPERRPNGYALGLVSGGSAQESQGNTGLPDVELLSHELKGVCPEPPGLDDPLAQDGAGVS

[3] = biological target: Adrenergic Receptor β2 (ADRB2) (Homo sapiens, UniProt P07550); assay: SAFETYscan ADRB2 cAMP; assay type: cell-based; conditions: 10 μM HU-MCA-13, read-out: Maximal Response
Adrenergic Receptor β2 (ADRB2), sequence (P07550 whole entry): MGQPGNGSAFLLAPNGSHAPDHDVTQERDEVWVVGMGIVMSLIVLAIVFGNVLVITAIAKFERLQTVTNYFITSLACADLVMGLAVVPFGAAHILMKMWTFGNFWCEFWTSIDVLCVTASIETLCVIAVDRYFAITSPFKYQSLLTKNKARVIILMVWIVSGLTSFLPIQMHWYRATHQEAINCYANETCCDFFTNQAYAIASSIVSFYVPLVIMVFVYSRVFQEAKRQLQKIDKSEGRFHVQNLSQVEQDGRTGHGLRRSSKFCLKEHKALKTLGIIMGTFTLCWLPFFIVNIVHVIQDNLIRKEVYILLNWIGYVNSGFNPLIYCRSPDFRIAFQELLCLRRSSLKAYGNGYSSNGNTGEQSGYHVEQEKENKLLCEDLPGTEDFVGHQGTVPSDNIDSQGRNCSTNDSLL

[4] = biological target: Cannabinoid Receptor 1 (CNR1) (Homo sapiens, UniProt P21554); assay: SAFETYscan CNR1 cAMP; assay type: cell-based; conditions: 10 μM HU-MCA-13; for Emax: read-out: Maximal Response
Cannabinoid Receptor 1 (CNR1), sequence (P21554 whole entry): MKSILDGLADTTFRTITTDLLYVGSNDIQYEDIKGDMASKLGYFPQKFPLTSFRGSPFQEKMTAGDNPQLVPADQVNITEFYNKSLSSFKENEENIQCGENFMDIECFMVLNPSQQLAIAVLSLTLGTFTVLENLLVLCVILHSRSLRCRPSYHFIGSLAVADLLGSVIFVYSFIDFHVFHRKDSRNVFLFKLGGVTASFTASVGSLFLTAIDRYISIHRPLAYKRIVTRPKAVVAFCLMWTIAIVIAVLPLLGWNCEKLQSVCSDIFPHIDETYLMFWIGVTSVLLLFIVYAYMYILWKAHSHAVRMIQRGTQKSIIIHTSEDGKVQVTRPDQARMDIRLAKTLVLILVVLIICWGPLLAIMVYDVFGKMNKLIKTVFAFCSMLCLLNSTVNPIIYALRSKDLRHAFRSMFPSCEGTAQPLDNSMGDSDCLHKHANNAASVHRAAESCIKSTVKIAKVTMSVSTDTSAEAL

[5] = biological target: Cannabinoid Receptor 2 (CNR2) (Homo sapiens, UniProt P34972); assay: SAFETYscan CNR2 cAMP; assay type: cell-based; conditions: 10 μM HU-MCA-13; for Emax: read-out: Maximal Response
Cannabinoid Receptor 2 (CNR2), sequence (P34972 whole entry): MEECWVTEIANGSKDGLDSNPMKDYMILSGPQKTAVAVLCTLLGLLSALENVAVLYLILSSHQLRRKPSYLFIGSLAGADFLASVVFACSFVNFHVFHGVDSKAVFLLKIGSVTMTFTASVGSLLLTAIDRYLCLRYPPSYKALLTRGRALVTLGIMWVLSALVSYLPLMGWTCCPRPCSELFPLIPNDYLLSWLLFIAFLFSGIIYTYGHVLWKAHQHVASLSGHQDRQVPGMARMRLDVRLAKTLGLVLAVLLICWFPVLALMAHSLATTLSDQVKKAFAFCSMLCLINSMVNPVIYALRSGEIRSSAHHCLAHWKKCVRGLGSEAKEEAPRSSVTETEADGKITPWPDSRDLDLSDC

[6] = biological target: Histamine Receptor H1 (HRH1) (Homo sapiens, UniProt P35367); assay: SAFETYscan HRH1 Calcium Flux; assay type: cell-based; conditions: 10 μM HU-MCA-13, read-out: Maximal Response
Histamine Receptor H1 (HRH1), sequence (P35367 whole entry): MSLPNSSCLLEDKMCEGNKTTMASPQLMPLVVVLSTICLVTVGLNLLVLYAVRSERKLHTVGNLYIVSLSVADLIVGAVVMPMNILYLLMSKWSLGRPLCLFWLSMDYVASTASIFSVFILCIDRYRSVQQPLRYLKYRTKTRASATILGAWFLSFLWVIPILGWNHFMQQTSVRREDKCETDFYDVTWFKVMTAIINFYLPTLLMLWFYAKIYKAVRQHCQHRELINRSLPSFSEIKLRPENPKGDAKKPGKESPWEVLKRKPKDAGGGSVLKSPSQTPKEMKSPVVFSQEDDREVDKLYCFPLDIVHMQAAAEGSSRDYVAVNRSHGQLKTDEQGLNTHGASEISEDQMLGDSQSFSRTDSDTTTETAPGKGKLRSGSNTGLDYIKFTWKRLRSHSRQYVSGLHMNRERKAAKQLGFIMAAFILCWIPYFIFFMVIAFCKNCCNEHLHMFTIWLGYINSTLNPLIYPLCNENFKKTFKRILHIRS

[7] = biological target: 5-Hydroxytryptamine (Serotonin) Receptor 1A (HTR1A) (Homo sapiens, UniProt P08908); assay: SAFETYscan HTR1A cAMP; assay type: cell-based; conditions: 10 μM HU-MCA-13
5-Hydroxytryptamine (Serotonin) Receptor 1A (HTR1A), sequence (P08908 whole entry): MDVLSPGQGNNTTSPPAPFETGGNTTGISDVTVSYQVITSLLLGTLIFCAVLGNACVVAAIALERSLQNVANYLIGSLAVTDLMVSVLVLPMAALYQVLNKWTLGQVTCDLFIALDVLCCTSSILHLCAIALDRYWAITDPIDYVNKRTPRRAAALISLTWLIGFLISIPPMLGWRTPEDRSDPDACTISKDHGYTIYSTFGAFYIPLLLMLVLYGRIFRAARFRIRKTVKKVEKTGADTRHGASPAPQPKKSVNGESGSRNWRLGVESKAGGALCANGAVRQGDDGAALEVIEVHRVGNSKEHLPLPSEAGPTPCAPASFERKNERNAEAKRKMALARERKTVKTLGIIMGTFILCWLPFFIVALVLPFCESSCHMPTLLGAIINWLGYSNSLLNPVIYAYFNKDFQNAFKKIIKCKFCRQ

[8] = biological target: 5-Hydroxytryptamine (Serotonin) Receptor 2A (HTR2A) (Homo sapiens, UniProt P28223); assay: SAFETYscan HTR2A Calcium Flux; assay type: cell-based; conditions: 10 μM HU-MCA-13, read-out: Maximal Response
5-Hydroxytryptamine (Serotonin) Receptor 2A (HTR2A), sequence (P28223 whole entry): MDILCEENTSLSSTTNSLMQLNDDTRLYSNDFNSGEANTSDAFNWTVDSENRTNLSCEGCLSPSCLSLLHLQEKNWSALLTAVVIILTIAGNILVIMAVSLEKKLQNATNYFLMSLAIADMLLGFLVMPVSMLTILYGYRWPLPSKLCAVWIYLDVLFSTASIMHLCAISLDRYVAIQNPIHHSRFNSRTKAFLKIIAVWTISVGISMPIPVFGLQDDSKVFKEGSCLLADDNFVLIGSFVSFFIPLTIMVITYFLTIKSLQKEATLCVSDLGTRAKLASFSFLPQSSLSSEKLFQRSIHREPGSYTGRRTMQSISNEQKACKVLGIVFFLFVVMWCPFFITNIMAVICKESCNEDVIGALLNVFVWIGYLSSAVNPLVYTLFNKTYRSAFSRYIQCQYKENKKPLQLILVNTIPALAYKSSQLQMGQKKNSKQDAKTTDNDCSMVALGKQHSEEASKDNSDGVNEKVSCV

[9] = biological target: T1, hERG (Kv11.1) (Homo sapiens, UniProt Q12809); assay: in vitro; assay type: cell-based; conditions: Blocker mode, 10 μM HU-MCA-13, read-out: Maximal Response
T1 construct: DiscoverX (SAFETYscan contract panel)

[10] = biological target: T2, N-methyl-D-aspartate (NMDA) Glutamate Receptor 1A/2B (NMDAR (1A/2B)) (Homo sapiens, UniProt Q05586+Q13224); assay: SAFETYscan NMDAR (1A/2B) Ion channel; assay type: cell-based; conditions: Blocker mode; 10 μM HU-MCA-13; read-out: Maximal Response
T2 construct: DiscoverX (SAFETYscan contract panel)
T2 sequence (Q13224 27-1484, other chains not shown): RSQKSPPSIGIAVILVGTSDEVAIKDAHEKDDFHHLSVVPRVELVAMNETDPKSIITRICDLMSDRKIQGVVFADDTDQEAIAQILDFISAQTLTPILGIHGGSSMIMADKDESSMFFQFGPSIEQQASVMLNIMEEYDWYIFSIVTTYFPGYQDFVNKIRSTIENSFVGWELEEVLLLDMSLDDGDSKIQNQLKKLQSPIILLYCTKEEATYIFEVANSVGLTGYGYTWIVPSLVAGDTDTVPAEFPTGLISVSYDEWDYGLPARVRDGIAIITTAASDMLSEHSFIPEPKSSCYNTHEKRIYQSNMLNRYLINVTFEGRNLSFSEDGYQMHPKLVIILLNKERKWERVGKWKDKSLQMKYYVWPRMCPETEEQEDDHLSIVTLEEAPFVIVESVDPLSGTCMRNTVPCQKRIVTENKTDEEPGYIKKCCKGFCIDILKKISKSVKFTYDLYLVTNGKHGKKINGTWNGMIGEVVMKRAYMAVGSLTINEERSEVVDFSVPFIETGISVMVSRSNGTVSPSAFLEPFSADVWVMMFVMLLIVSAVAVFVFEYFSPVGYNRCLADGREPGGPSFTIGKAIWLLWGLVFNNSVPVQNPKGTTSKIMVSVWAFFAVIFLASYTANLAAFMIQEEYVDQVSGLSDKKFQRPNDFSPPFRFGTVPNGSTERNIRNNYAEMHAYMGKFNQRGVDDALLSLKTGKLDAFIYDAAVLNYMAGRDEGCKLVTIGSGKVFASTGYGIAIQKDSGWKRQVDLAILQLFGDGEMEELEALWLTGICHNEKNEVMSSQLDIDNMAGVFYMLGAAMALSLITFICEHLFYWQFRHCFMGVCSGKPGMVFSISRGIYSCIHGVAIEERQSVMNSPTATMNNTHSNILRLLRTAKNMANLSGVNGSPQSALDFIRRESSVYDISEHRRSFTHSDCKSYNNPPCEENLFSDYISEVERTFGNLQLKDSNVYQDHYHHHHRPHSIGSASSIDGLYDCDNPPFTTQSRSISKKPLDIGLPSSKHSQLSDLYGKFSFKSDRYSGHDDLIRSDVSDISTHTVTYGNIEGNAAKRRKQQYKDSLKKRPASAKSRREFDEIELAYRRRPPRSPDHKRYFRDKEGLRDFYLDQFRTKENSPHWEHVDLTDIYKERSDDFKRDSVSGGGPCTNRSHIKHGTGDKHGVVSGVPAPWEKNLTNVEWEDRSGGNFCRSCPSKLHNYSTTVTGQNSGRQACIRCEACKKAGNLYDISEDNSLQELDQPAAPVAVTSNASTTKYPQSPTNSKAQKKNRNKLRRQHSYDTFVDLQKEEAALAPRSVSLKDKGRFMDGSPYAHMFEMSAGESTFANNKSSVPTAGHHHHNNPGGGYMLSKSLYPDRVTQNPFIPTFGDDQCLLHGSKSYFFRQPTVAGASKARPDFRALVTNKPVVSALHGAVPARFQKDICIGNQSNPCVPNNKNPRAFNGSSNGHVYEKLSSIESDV

[11] = biological target: T3, Insulin Receptor (tyrosine kinase) (INSR) (Homo sapiens, UniProt P06213); assay: SAFETYscan INSR kinase Binding; conditions: Inhibitor mode, 10 μM HU-MCA-13, read-out: Maximal Response
T3 construct: DiscoverX (KINOMEscan)

[12] = biological target: T4, Acetylcholinesterase (AChE) (Homo sapiens, UniProt P22303); assay: SAFETYscan AChE Enzymatic; assay type: biochemical; conditions: Inhibitor mode; 10 μM HU-MCA-13; read-out: Maximal Response
T4 construct: DiscoverX (SAFETYscan contract panel)

[13] = biological target: T5, Cyclooxygenase 2 (COX 2) (Homo sapiens, UniProt P35354); assay: SAFETYscan COX 2 Enzymatic; assay type: biochemical; conditions: Inhibitor mode; 10 μM HU-MCA-13; read-out: Maximal Response
T5 construct: DiscoverX (SAFETYscan contract panel)

[14] = biological target: T6, Monoamine oxidase type A (MAOA) (Homo sapiens, UniProt P21397); assay: SAFETYscan MAOA Enzymatic; assay type: biochemical; conditions: Inhibitor mode; 10 μM HU-MCA-13; read-out: Maximal Response
T6 construct: DiscoverX (SAFETYscan contract panel)
T6 sequence (P21397 whole entry): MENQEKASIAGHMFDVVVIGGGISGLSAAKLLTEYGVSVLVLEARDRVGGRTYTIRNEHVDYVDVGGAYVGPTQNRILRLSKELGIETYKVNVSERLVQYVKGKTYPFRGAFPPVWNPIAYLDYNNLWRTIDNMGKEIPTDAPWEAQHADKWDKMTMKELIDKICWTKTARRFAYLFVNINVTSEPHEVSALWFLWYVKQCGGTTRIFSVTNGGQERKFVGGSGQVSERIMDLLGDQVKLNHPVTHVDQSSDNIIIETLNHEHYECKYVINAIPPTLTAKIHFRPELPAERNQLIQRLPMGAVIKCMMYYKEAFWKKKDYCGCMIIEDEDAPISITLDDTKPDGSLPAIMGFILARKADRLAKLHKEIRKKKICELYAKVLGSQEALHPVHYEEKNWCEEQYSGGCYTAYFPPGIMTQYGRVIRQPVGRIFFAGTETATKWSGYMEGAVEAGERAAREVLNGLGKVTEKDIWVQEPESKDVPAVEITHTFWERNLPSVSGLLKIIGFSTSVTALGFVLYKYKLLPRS

In the case of C=CCC1CCC[C@@H](CCC(=O)O)C1=C (some centres unmarked) [Compound 13], the neurite outgrowth ([1]; 1 μM HU-MCA-13) is reported as 10-15%, the “neurite outgrowth Df” value ([1]; 1 μM HU-MCA-13) is reported as 0.04 and the “neurite outgrowth Df” value ([1]; HU-MCA-13 alone at 10 μM, 2 days) is reported as 0.36. For the same compound, the “neurite outgrowth Df” value ([1]; HU-MCA-13 alone at 10 μM, 7 days) was 0.30, the Emax ([2]; Agonist mode) was 0% and the Emax ([2]; Antagonist mode) was 4.09%. The Emax ([3]; Agonist mode) was 1.29%, the Emax ([3]; Antagonist mode) was 8.23% and the “Maximal Response” value ([4]; Agonist mode) was 50.22%. For the same compound, the Emax ([4]; Agonist mode) was 50.1%, the Emax ([4]; Antagonist mode) was 0.57% and the “Maximal Response” value ([5]; Agonist mode) was 49.59%. The Emax ([5]; Agonist mode) was 49.6%, the Emax ([5]; Antagonist mode) was 4.11% and the Emax ([6]; Agonist mode) was 0%. It also gave an Emax ([6]; Antagonist mode) of 1.05%, an Emax ([7]; read-out: Maximal Response, Agonist mode) of 7.66% and an Emax ([7]; read-out: Maximal Response, Antagonist mode) of 0%. For the same compound, the Emax ([8]; Agonist mode) was 1.13%, the Emax ([8]; Antagonist mode) was 0% and the Emax at 10 μM [9] was 0%. The Emax [10] was 0%, the Emax [11] was 3.22% and the Emax [12] was 4.27%. It also gave an Emax [13] of 7.99% and an Emax [14] of 1.86%.
